Measured values taken from article PMC12136031 (Science Advances, 2025).
Where two headings read alike, the source gives them in different places.

Experiments:
TFEB ubiquitination = assay: TFEB cellular ubiquitination assay; assay type: cell-based, human; conditions: TFEB-EGFP immunoprecipitated
TFEB = TFEB protein level / nuclear localization in BEAS-2B cells; assay type: cell-based, human; conditions: in the presence of DCAF7 (WT vs DCAF7 KO BEAS-2B), 18 hours
ADRA2A = molecular target: T1, ADRA2A (Homo sapiens, UniProt P08913); assay: Safety47 cAMP ADRA2A; assay type: cell-based; conditions: for Emax: read-out: Max Response; for EC50: read-out: RC50 (EC50); for IC50: read-out: RC50 (IC50)
T1 construct: purchased Eurofins Panlab Safety47 Safety Scan
T1 sequence (P08913 1-465): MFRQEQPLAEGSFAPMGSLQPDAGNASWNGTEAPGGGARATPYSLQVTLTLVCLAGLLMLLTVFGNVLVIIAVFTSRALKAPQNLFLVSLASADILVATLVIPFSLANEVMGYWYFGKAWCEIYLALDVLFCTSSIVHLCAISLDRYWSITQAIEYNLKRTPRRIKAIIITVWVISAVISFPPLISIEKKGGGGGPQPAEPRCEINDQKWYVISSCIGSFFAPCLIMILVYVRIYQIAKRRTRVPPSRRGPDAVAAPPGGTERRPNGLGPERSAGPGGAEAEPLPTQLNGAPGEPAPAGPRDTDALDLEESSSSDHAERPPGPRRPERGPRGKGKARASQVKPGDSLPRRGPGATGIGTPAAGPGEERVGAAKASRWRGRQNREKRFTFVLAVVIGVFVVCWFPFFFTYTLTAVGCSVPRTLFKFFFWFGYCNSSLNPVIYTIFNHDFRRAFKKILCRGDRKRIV

DRD2S = molecular target: T2, DRD2S (Homo sapiens, UniProt P14416); assay: Safety47 cAMP DRD2S; assay type: cell-based; conditions: for Emax: read-out: Max Response; for EC50: read-out: RC50 (EC50); for IC50: read-out: RC50 (IC50)
T2 construct: purchased Eurofins Panlab Safety47 Safety Scan
T2 sequence (P14416 1-414 isoform P14416-2): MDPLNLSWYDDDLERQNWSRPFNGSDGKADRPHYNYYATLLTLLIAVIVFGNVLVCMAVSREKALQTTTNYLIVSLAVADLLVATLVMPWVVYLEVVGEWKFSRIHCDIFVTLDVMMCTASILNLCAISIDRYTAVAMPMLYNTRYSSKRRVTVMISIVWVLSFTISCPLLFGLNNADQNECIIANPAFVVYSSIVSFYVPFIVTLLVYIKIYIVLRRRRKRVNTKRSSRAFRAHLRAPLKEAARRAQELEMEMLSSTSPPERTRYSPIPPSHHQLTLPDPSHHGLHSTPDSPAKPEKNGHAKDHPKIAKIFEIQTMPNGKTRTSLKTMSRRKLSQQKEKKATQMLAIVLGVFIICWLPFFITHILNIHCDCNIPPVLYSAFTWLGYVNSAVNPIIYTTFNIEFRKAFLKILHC

HTR1B = molecular target: T3, HTR1B (Homo sapiens, UniProt P28222); assay: Safety47 cAMP HTR1B; assay type: cell-based; conditions: for Emax: read-out: Max Response; for EC50: read-out: RC50 (EC50); for IC50: read-out: RC50 (IC50)
T3 construct: purchased Eurofins Panlab (Safety47 Safety Scan, contract panel)
T3 sequence (P28222 whole entry, species assumed): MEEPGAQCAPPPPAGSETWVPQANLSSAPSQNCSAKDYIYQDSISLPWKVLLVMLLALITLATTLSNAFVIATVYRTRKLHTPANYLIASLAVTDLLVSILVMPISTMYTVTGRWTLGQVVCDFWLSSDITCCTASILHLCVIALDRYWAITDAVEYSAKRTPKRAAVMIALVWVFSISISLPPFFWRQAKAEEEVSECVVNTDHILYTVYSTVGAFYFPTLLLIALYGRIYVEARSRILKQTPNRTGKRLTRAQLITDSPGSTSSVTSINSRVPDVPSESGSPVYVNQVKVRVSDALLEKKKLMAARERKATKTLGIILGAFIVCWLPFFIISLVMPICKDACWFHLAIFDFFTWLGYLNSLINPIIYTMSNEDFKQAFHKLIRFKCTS

CAV1.2 = molecular target: T4, CAV1.2 (Homo sapiens, UniProt Q13936); assay: Safety47 Ion Channel CAV1.2; assay type: cell-based; conditions: Blocker; for Emax: read-out: Max Response; for IC50: read-out: RC50 (IC50)
T4 construct: purchased Eurofins Panlab (Safety47 Safety Scan, contract panel)
T4 sequence (Q13936 whole entry): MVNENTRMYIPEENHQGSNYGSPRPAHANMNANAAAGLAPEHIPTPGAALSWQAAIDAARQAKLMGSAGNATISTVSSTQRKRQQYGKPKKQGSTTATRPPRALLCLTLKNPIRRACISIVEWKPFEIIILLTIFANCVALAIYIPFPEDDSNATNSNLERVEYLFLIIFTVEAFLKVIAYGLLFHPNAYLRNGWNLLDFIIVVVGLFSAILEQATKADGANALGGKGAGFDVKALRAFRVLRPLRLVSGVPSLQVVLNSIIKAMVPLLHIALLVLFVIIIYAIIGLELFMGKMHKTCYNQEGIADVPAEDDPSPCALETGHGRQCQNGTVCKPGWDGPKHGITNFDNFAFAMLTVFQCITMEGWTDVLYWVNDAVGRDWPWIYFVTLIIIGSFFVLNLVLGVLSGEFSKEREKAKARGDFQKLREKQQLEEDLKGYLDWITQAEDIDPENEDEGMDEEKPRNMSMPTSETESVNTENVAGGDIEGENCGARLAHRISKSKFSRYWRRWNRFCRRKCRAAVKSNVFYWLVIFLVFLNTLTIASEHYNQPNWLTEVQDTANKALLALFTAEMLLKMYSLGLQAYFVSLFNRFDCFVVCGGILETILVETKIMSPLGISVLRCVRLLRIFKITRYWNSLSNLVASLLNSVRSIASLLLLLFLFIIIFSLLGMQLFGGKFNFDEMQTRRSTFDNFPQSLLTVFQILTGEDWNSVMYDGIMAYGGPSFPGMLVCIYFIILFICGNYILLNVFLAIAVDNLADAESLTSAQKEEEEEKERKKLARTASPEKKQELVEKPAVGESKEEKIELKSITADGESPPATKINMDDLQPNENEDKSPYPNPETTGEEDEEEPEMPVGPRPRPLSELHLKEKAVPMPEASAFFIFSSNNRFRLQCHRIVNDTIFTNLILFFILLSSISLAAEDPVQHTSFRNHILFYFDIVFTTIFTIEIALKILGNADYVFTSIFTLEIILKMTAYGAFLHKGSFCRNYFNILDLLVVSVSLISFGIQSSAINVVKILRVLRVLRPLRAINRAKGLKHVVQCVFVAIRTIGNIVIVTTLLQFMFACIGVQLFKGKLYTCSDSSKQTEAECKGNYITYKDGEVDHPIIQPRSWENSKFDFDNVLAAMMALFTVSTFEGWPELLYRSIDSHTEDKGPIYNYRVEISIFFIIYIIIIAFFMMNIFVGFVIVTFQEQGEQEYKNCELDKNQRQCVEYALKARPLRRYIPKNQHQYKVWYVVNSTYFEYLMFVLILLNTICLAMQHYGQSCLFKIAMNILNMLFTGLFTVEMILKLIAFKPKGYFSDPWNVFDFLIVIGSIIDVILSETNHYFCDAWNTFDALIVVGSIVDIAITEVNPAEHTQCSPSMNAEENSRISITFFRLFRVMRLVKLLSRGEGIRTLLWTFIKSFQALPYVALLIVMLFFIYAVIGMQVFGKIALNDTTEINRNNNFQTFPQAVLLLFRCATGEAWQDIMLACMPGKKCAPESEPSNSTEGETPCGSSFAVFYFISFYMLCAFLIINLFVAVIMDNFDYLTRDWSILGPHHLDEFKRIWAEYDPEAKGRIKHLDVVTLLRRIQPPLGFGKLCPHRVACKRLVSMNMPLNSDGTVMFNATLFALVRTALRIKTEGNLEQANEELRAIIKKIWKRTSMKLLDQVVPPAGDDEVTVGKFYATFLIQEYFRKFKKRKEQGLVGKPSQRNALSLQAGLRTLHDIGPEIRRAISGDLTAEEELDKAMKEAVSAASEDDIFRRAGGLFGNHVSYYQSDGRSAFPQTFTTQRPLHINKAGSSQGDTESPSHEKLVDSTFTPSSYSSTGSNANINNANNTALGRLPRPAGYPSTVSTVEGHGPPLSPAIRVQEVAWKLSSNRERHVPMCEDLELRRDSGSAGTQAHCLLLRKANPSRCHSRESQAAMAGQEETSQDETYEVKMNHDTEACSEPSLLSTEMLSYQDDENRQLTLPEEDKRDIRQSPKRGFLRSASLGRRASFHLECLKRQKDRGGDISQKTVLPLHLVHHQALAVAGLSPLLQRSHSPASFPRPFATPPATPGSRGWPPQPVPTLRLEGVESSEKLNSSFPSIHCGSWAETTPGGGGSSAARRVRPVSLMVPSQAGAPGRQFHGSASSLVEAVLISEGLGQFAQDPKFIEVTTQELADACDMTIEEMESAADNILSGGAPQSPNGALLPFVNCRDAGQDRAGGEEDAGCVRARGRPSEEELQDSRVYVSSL
T4 sequence (Q08289 whole entry partner): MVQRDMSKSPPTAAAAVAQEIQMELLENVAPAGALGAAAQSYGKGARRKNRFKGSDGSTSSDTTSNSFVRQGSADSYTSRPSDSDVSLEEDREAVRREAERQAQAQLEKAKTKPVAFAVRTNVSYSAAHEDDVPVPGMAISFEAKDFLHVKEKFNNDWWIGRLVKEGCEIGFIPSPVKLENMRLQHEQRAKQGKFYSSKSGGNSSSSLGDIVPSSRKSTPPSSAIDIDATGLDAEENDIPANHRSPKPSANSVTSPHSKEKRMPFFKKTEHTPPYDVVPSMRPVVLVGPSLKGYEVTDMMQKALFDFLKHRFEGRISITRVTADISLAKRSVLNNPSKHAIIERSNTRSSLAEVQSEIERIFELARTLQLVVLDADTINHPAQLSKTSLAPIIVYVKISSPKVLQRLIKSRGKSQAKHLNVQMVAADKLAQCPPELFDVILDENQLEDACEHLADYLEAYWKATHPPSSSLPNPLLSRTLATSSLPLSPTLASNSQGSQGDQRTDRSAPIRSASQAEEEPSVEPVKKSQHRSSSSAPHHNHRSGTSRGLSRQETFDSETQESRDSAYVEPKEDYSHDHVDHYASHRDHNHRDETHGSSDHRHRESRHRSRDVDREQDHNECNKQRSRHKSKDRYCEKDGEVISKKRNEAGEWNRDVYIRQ
T4 sequence (P54289 25-946 partner limits assumed): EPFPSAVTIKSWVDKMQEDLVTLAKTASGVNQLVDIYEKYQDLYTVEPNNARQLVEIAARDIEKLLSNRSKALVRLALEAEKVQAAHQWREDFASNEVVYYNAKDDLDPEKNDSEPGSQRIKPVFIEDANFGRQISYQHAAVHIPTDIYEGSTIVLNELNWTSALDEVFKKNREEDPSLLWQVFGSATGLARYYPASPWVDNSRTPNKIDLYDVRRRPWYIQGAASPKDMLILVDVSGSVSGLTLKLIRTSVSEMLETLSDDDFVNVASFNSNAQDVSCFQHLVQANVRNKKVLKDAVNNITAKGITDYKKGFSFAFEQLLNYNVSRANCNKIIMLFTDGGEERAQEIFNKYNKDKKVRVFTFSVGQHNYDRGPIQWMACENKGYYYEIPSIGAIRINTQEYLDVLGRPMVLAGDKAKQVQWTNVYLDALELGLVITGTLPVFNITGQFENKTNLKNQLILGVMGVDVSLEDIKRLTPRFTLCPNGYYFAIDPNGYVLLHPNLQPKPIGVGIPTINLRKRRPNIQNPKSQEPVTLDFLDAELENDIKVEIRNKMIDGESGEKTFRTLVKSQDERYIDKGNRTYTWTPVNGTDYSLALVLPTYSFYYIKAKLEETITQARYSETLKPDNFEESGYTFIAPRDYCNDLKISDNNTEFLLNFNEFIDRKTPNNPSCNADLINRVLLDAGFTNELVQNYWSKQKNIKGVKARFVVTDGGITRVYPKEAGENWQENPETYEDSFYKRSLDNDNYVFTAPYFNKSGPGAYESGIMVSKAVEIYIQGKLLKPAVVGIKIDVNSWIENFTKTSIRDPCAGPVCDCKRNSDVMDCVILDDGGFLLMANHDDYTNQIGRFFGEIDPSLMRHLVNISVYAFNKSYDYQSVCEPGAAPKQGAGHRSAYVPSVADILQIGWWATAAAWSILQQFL
T4 sequence (P54289 947-1103 partner limits assumed): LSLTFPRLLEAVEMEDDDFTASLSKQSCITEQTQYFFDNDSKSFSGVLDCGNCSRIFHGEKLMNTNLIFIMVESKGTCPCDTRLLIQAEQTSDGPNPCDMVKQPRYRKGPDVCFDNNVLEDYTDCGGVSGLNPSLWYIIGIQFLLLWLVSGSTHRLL

INSR = molecular target: T5, INSR (Homo sapiens, UniProt P06213); assay: Safety47 Kinase Binding INSR; conditions: Kinases, Inhibitor; for Emax: read-out: Max Response; for IC50: read-out: RC50 (IC50)
T5 construct: purchased Eurofins Panlab (Safety47 Safety Scan, contract panel)

GR = molecular target: T6, GR (Homo sapiens, UniProt P04150); assay: Safety47 NHR Protein Interaction GR; assay type: cell-based; conditions: for Emax: read-out: Max Response; for EC50: read-out: RC50 (EC50); for IC50: read-out: RC50 (IC50)
T6 construct: purchased Eurofins Panlab (Safety47 Safety Scan, contract panel)
T6 sequence (P04150 1-777): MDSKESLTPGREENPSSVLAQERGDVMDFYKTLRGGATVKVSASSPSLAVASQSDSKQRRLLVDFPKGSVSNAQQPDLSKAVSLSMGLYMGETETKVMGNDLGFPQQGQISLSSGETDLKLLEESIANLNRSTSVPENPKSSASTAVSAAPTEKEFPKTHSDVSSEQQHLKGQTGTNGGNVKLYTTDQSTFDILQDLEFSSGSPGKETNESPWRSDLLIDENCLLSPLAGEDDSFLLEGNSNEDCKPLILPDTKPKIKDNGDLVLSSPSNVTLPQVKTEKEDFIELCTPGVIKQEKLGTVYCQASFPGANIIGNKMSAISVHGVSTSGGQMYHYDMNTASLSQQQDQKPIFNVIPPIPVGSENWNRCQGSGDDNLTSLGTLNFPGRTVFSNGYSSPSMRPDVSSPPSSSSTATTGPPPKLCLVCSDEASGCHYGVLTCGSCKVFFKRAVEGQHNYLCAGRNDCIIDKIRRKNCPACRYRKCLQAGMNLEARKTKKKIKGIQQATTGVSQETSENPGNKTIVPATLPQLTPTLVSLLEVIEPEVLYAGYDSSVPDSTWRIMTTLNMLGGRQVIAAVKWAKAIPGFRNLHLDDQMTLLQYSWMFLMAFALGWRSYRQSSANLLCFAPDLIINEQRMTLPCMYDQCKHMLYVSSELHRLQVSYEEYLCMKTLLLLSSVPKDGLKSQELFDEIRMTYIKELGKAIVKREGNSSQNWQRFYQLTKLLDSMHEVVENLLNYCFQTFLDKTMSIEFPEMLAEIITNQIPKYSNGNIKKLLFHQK

MAOA = molecular target: T7, MAOA (Homo sapiens, UniProt P21397); assay: Safety47 Enzymatic MAOA; assay type: biochemical; conditions: Inhibitor; for Emax: read-out: Max Response; for IC50: read-out: RC50 (IC50)
T7 construct: purchased Eurofins Panlab (Safety47 Safety Scan, contract panel)
T7 sequence (P21397 1-527): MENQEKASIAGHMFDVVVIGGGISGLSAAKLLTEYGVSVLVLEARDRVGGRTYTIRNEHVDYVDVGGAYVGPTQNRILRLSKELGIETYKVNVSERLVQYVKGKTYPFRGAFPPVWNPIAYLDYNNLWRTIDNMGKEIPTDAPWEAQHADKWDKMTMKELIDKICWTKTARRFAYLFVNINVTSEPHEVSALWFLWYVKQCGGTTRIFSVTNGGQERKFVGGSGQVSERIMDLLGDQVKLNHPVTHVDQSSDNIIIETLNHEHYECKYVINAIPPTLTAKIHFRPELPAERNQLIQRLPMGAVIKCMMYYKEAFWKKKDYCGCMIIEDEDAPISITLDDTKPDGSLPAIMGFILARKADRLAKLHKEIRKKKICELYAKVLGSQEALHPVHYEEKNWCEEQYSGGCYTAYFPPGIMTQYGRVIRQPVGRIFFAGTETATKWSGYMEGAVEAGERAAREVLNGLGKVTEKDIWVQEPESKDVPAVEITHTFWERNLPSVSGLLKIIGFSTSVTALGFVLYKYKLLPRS

PDE3A = molecular target: T8, PDE3A (Homo sapiens, UniProt Q14432); assay: Safety47 Enzymatic PDE3A; assay type: biochemical; conditions: Inhibitor; for Emax: read-out: Max Response; for IC50: read-out: RC50 (IC50)
T8 construct: purchased Eurofins Panlab (Safety47 Safety Scan, contract panel)

Structure (SMILES): Cl.Fc1cc(Nc2nc(-c3ccncc3)nc3ncccc23)cc2cc[nH]c12 [BC18813, N-(7-fluoro-1H-indol-5-yl)-2-pyridin-4-ylpyrido[2,3-d]pyrimidin-4-amine hydrochloride]
- TFEB ubiquitination (TFEB ubiquitination): decreased
- TFEB protein level (TFEB): increased
- Emax (ADRA2A; Agonist): 38.8%
- EC50 (ADRA2A; Agonist): > 10 µM
- Emax (ADRA2A; Antagonist): 0%
- IC50 (ADRA2A; Antagonist): > 10 µM
- Emax (DRD2S; Agonist): 13.5%
- EC50 (DRD2S; Agonist): > 10 µM
- Emax (DRD2S; Antagonist): 5.93%
- IC50 (DRD2S; Antagonist): > 10 µM
- Emax (HTR1B; Agonist): 27.4%
- EC50 (HTR1B; Agonist): > 10 µM
- Emax (HTR1B; Antagonist): 0.13%
- IC50 (HTR1B; Antagonist): > 10 µM
- Emax (CAV1.2): 0%
- IC50 (CAV1.2): > 10 µM
- Emax (INSR): 0%
- IC50 (INSR): > 10 µM
- Emax (GR; Agonist): 4.56%
- EC50 (GR; Agonist): > 10 µM
- Emax (GR; Antagonist): 7.56%
- IC50 (GR; Antagonist): > 10 µM
- Emax (MAOA): 22.2%
- IC50 (MAOA): > 10 µM
- Emax (PDE3A): 28.2%
- IC50 (PDE3A): > 10 µM

Structure (SMILES): Cl.c1ccc2c(Nc3ccc4[nH]ccc4c3)nc(-c3ccncc3)nc2c1 [BC18630, N-1H-indol-5-yl-2-pyridin-4-ylquinazolin-4-amine hydrochloride]
- TFEB ubiquitination (TFEB ubiquitination): decreased
- TFEB protein level (TFEB): increased
- Emax (ADRA2A; Agonist): 0%
- EC50 (ADRA2A; Agonist): > 10 µM
- IC50 (ADRA2A; Antagonist): > 10 µM
- Emax (DRD2S; Agonist): 0.87%
- EC50 (DRD2S; Agonist): > 10 µM
- Emax (DRD2S; Antagonist): 24.3%
- IC50 (DRD2S; Antagonist): > 10 µM
- Emax (HTR1B; Agonist): 12.5%
- EC50 (HTR1B; Agonist): > 10 µM
- Emax (HTR1B; Antagonist): 5.74%
- IC50 (HTR1B; Antagonist): > 10 µM
- Emax (CAV1.2): 0%
- IC50 (CAV1.2): > 10 µM
- Emax (INSR): 15.6%
- IC50 (INSR): > 10 µM
- Emax (GR; Agonist): 0%
- EC50 (GR; Agonist): > 10 µM
- Emax (GR; Antagonist): 0%
- IC50 (GR; Antagonist): > 10 µM
- Emax (MAOA): 57%
- IC50 (MAOA): > 10 µM
- Emax (PDE3A): 8.9%
- IC50 (PDE3A): > 10 µM
